{"source": "patent US5707815A", "about": "“Mammalian monocyte chemoattractant protein receptors and assays using them” (Regents of the University of California, priority 1995, dated 1998)", "key": {"MIP-1α/RANTES receptor": {"test_system": "MIP-1α/RANTES receptor", "assay": "Ca45 efflux assay in Xenopus oocytes, MIP-1α/RANTES receptor examined in parallel", "format": "cell-based"}, "MCP-1RB receptor": {"test_system": "MCP-1RB receptor", "assay": "Intracellular calcium mobilization (indo-1) in stably transfected MCP-1RB/293 cells", "format": "cell-based, human", "conditions": "MCP-1RB/293 cells", "method": "Calcium mobilization in 293 cells was then investigated. Transfected HEK-293 cells were grown until confluent, trypsinized briefly, washed with phosphate buffered saline containing 1 mg/ml BSA (PBS-BSA), and resuspended in serum-free MEM-EBSS supplemented with 1 mg/ml BSA and 10 mM HEPES (pH 7.0) at a density of 2×10^7 cells/ml. The cells were incubated in the dark at 37° C. for 20 min in the presence of 5-10 μg/ml indo-1 AM (Molecular Probes, Inc., Eugene, Oreg.). Nine volumes of PGS-BSA were added, and the cells were incubated for an additional 10 min at 37° C., pelleted by centrifugation, and washed twice with 50 ml of the PBS-BSA solution. Washed, indo-1-loaded cells were then resuspended in Hank's Balanced Salt Solution (1.3 mM Ca^2+) supplemented with 1 mg/ml BSA (HBS-BSA) at a density of approximately 0.5×10^6 cells/ml at room temperature. To measure intracellular calcium ([Ca^2+ ]i), 0.5 ml of the cell suspension was placed in a quartz cuvette in a Hitachi F-2000 fluorescence spectrophotometer. […] Intracellular calcium was measured by excitation at 350 nm and fluorescence emission detection at 490 nm (F1) and 410 nm (F2) wavelengths. The [Ca^2+ ]i was estimated by comparing the 490/410 fluorescence ratio after agonist application (R) to that of calibration ratios measured at the end of each run, according to the equation:\n[Ca^2+ ]i =Kd ×[(R--Rmin)/(Rmax\nwhere Rmax and Rmin represent the fluorescence ratio under saturating (1.3 mM Ca^2+) and nominally free (10 mM EGTA, Sigma Chemical Co.) calcium conditions, Kd is the dissociation constant of calcium for indo-1, R is the fluorescence ratio, and Sf2/Sb2 is the fluorescence ratio of free and bound indo-1 dye at 410 nm. See Thomas, AP and Delaville, F (1991) in Cellular Calcium, a Practical Approach, Oxford Univ. Press, pp. 1-54.\nTo quantirate calcium responses, MCP-1 dose response curves were generated in each experiment and the results were expressed as a percent of the maximum calcium signal (at 300 nM MCP-1) measured in that experiment. The changes in [Ca^2+ ]i levels in response to each concentration of agonist were determined by subtracting the baseline from peak [Ca^2+ ]i levels, which were determined by averaging 5 seconds of data prior to agonist addition and surrounding the peak response, respectively. In experiments done to determine the role of extracellular calcium, 3 mM EGTA was added 60-90 seconds prior to MCP-1. […] All experiments were performed at room temperature.\nInhibition of MCP-1RB receptor activation by bordetella pertussis toxin was investigated. Pertussis toxin (List Biological Labs, Inc., Campbell, Calif.) was dissolved in 0.01M sodium phosphate, pH 7.0, 0.05M sodium chloride and diluted into normal serum containing media at final concentrations of 0.1 ng/ml to 100 ng/ml, and incubated with cells overnight (14-16 h) at 37° C. The conditions of the Pertussis toxin treatment of the 293 cells were identical for calcium fluorimetric and adenylyl cyclase experiments. In the adenylyl cyclase experiments, the Pertussis toxin was added at the same time as [^3 H]adenine.\nDose response curves generated in the calcium fluorimetric and adenylyl cyclase inhibition assays were fit by a nonlinear least squares program to the logistic equation:\nEffect=max effect/[1+(EC50 /(agonist)^n)]\nwhere n and EC50 represent the Hill coefficient and the agonist concentration that elicited a half-maximal response, respectively, and were derived from the fitted curve. Curve fitting was done with the computer program \"Prism\" (by Graph Pad, San Diego, Calif.). Results represent the mean ±SE. The 95% confidence intervals (CI) of the EC50 and IC50 values, when given, were calculated from the log EC50 and IC50 values, respectively."}}, "note": "pEC50: −log10 of the molar value. Entries after “also recorded” stand apart in the source; their conditions may differ.", "data": [{"substance": "monocyte chemoattractant protein-1 [MCP-1]", "values": [{"measurement": "receptor signaling in response to chemokine", "setting": "MIP-1α/RANTES receptor", "value": "not to MCP-1"}, {"measurement": "concentration giving small but reproducible calcium signals", "setting": "MCP-1RB receptor", "value": 100, "unit": "pM"}, {"measurement": "homologous desensitization to a second challenge with MCP-1", "setting": "MCP-1RB receptor", "value": "refractory to activation by a second challenge; also recorded: desensitized the cells to a second addition"}, {"measurement": "time to peak of calcium transients after addition", "setting": "MCP-1RB receptor", "value": "4 to 8", "unit": "s"}, {"measurement": "pEC50", "setting": "MCP-1RB receptor; average of four full dose-response curves", "value": "8.40 to 8.70"}]}]}
